Experimental data as given in patent publication US20210340178A1, “NONAPEPTIDE PREVENTING INCREASED HYPERPERMEABILITY OF VASCULAR ENDOTHELIUM” (FEDERALNOYE GOSUDARSTVENNOE BUDGETNOE UCHREZHDENIE …, priority 2018, published 2021).
“Also recorded” adds a separate entry of the source. Where two headings read alike, the source gives them in different places. Non-standard residues stand in square brackets, D forms with d. Residues, ends and D or L forms follow the SMILES beside them.

How the values were obtained:
[1] = rabbit, in vivo
Description: PIK2 dose of 5 mg/kg was calculated individually for each rabbit and administered into marginal ear vein in a final volume of 1.7-1.9 mL in sterile physiological saline. Stock concentration of the tested substance was 10 mg/mL.
During the 24-hrs testing period, the overall health status and behavior were monitored (appetite, motion activity, hair coat condition).
Before injection of test substances (baseline) and 4 hrs and 24 hrs after the injection, the following parameters were tested in whole venous blood samples (3.0-3.5 mL) collected from a marginal ear vein red blood cell (RBC) count, hematocrit, hemoglobin level, mean RBC volume, mean corpuscular hemoglobin, total leukocyte, lymphocyte, and granulocyte counts and their percentages, platelet count, and mean platelet volume. In parallel, the following biochemical parameters were measured in serum total protein, bilirubin, urea, creatinine, glucose, total cholesterol, triglycerides, and activities of alkaline phosphatase, lactate dehydrogenase, aspartate aminotransferase, and alanine aminotransferase. Blood cell count was performed using an Abacus junior vet (Austria) hematological cell counter; biochemical studies were performed using a Targa-2000 (Italy) instrument.

[2] = system: EA.hy926 endothelial cell monolayer; experiment: Thrombin-mediated FITC-dextran permeability through endothelial cell monolayer; assay type: cell-based; conditions: peptide 100 μM, 60 min preincubation; thrombin 100 nM; 70 kDa FITC-dextran
Description: FIG. 3. The thrombin-mediated FITC-dextran permeability through the EA.hy926 endothelial cell monolayer in the presence of myosin light chain kinase peptide inhibitors. Thrombin (100 nM) was added at 0 min, the cells were preincubated for 60 min with MLCK peptide inhibitors (100 μM). Data are presented as mean±SD, n=5. p<0.05 for all data points within the 20-180 min time course range as compared to the thrombin-stimulated control.
Effects of the claimed peptide (PIK7), the prototype (PIK2), and the analogue (MLC11-19) on the endothelial permeability was assayed in a model of FITC-dextran diffusion through the endothelial monolayer as described in Example 3.
Cells were grown in 24-well plates (Greiner Bio-one, Austria) equipped with special inserts to form inner (upper) chambers with a porous bottom (the pore diameter of 0.4 μm, pore density of 10^8/cm^2) in DMEM until monolayer was formed (3-4 days). Successful monolayer was checked by measuring FITC-dextran diffusion for 1 hour through inserts with cell monolayers vs inserts without cells (‘blank’ inserts). Experiments were performed in triplicates when tight monolayers were formed. On the day of experiment, the cells were deprived for 1 h in DMEM supplemented with MLCK inhibitors or without inhibitors (control). After deprivation, FITC-dextran was added to the upper compartment to a final concentration of 0.05 mg/ml. In 30 and 60 min, a 10-μ1 aliquot was withdrawn from the lower compartment and mixed with 100 μl phosphate buffered saline pH 7.3 in a 96-well plate to estimate the endothelial monolayer baseline permeability. […] During the next 3 hrs, every 30 min, aliquots were taken from the lower compartment, and intensity of FITC fluorescence was measured using a Victor 3X plate reader (Perkin Elmer, USA) to plot the dynamics of the FITC fluorescence changes.
As shown, 100 nM thrombin induces the endothelial hyperpermeability response as reflected by an increase in 70 kDa FITC-dextran diffusion through the endothelial monolayer and an incremental increase in the fluorescence in the lower compartment of the diffusion chamber. […]

Chinchilla rabbits = experiment: Tolerance of a single intravenous injection in Chinchilla rabbits; conditions: i.v. 10 mg/kg
[3] = Peptide half-lives in human plasma in vitro (1H-NMR spectroscopy); assay type: in vitro ADME; conditions: for half-life: human, plasma
Description: Whole blood (100 mL) was collected from healthy donors to 50-mL tubes containing 5 mL of a preservative (130 mM citrate in phosphate buffered saline (PBS), pH 7.4). The blood was incubated for 15-20 min at room temperature followed by centrifugation at 1500 g for 15 min at 18° C. The supernatants were transferred to clear tubes and centrifuged as above. Dry NaBr was added to the plasma (280 mg per 1 mL of plasma). After dissolution of NaBr, the plasma (approx. 30 mL) was transferred to centrifuge tubes (Type 45Ti rotor, Beckman, USA) and layered with 20 mL of a solution (specific mass of […]), which was prepared as follows—11.42 g of NaCl and 100 mg of ethylenediaminetetraacetic acid (EDTA) were dissolved in distilled water in a final volume of 1 L (pH 7.4) and 281.44 g of NaBr was added. The plasma was centrifuged at 40,000 rpm for 48 hrs. The upper dark-yellow fraction containing lipoproteins and the colorless buffer fraction were discarded leaving approx. 1-cm high buffer above the apparent plasma border. Portions of plasma obtained from one donor were pooled and dialyzed for 36 hrs against 4 L of PSB free of Ca^2+ and Mg^2+(MP Biomedicals, USA) in dialysis bags with 12-14 kDa pore sizes. The dialysis procedure was repeated twice with fresh buffer changed every 24 hrs. After the dialysis, the plasma was centrifuged at 25,000 rpm (Type 45Ti rotor, Beckman, USA) for 15 min at 4° C. The supernatant fraction was collected and lyophilized. The dry matter was dissolved in D2O in a final volume equal to the plasma volume before NaBr was added, lyophilized again, dissolved in the same volume of D2O, and stored in 1-mL aliquots at −20° C. before use.
^1H-NMR spectroscopy was employed to analyze relative degradation of PIK7 (the claimed peptide) and MLC11-19 (the structural analogue) in human plasma. ^1H-NMR spectroscopy allows simultaneous direct monitoring the amounts of original full-length peptide and its fragments during the course of enzymatic hydrolysis (Isakova et al., 1986). Stability of a peptide, its degradation pathway(s) and a half-life estimate are available from a comparison of spectra obtained at different time points after the addition of a peptide to plasma. ^1H-NMR spectra were obtained using a WM-500 spectrometer (Bruker, Germany) at 37° C. Chemical shifts in ^1H-NMR spectra were measured relative to an internal standard (2,2-dimethyl-2-silapentane-5-sulfonate sodium salt). The signals were referenced by the double-resonance method. The resonances from peptide protons were identified by the differential spectroscopy method, i.e. the spectrum of blood plasma was subtracted from each spectrum obtained in the presence of peptide of interest. Peptide concentrations were 3 mg/ml.
These indicate the peptide N-terminus degradation. […] Therefore, the claimed peptide has an increased life-span in plasma that allows for long-lasting maintenance of its effective concentrations necessary to decrease the endothelial hyperpermeability under emergency conditions. Moreover, an increased life-time allows attaining the desired therapeutic effect with lower (as compared to homologues) peptide concentrations.

SMILES: C[C@H](NC(=O)[C@H](C)NC(=O)[C@H](CCCNC(=N)N)NC(=O)[C@@H](CCCCN)NC(=O)[C@@H](N)CCCCN)C(=O)N[C@@H](CCCNC(=N)N)C(=O)N[C@@H](C)C(=O)N[C@H](C(=O)N[C@@H](CO)C(N)=O)[C@@H](C)O [PIK7, H-Lys-D-Lys-Arg-Ala-Ala-Arg-Ala-Thr-Ser-NH2] (H-K[dK]RAARATS-NH2)
- LD50 [1]: > 10 mg/kg
- effect on thrombin-induced FITC-dextran hyperpermeability [2]: completely abolished the FITC-dextran hyperpermeability; also recorded: effectively abolished FITC-dextran hyperpermeability
- other standard hematological and biochemical parameters (Chinchilla rabbits): not altered
- overall health status and behavior (Chinchilla rabbits; 24-hrs testing period): no significant changes either in the overall health status or behavior
- triglyceride levels (Chinchilla rabbits; 24 hrs after administration, baseline 1.63 mmol/L): 2.79 mmol/L
- hematocrit (Chinchilla rabbits; 24 hrs after administration, baseline 38.81±1.49%): 35.90±0.18%
- total plasma protein (Chinchilla rabbits; 24 hrs after administration, baseline 73.6±2.58 g/L): 69.2 ± 0.47 g/L
- hemoglobin level (Chinchilla rabbits; 24 hrs after administration, baseline 131±5 g/L): 120 ± 7 g/L
- survival (Chinchilla rabbits; group of 4): all animals survived
- T1/2, half-life in human plasma in vitro ([3]; 1H-NMR, 37° C., peptide 3 mg/ml): ≥5.33 h
- resistance to proteolysis as compared to the structural analogue (MLC11-19) ([3]; human plasma in vitro): by one order of magnitude
- half-life ([3]; 1H-NMR, 37° C., peptide 3 mg/ml (FIG. 2), read-out: half-life in human plasma): ≥ 7 h
- half-life ([3]; 1H-NMR, 37° C., peptide 3 mg/ml, read-out: T1/2, half-life in human plasma in vitro): > 5.33 h
